Structure (SMILES) | melting point [°C]
CCn1cc(C(=O)O)c(=O)c2cc(F)c(N3CCN(C)C(COC)C3)cc21 (stereo unspecified) | 228 to 230
C#CCN(CC#C)c1cc(OC)c(OC)c(OC)c1 | 62 to 63
CC(=O)OCC(OC(C)=O)C(OC(C)=O)C(OC(C)=O)C(C=O)OC(C)=O (stereo unspecified) | 112 to 114
N#Cc1ccc(CN2CC=C(c3nc4ccccc4s3)CC2)cc1 | 165 to 166
OCc1cnc2cc(Br)ccc2c1O | > 300
COc1cc2c(cc1Cl)C(C)(C)C(CC=O)C2=O (racemic) | 102 to 103
COc1cc(-n2nc(C(F)(F)F)cc2-c2ccc(-c3ccco3)cc2)ccc1S(N)(=O)=O | 207
OCc1ccc(-c2ccc(CO)cc2)cc1 | 195 to 197
Cc1cc(N)nc(-c2ccncc2)n1 | 192 to 194
O=C1CCC(N2C(=O)c3cccc(OCc4ccccc4)c3C2=O)C(=O)N1 (stereo unspecified) | 238 to 240
CC(C)n1c(C=O)c(-c2ccc(F)cc2)c(-c2ccccc2)c1C(=O)NCCc1cccnc1 | 192 to 194
CN(CCCNC(=O)COc1nc2ccccc2s1)Cc1ccc(Cl)c(Cl)c1 | 113 to 115
CCc1noc(-c2ncn3c2c(=O)n(CC)c2ncccc23)n1 | 221
CCOC(=O)N=P(c1ccccc1)(c1ccccc1)c1ccccc1C | 113 to 114
Cc1n[nH]c(C)c1Oc1cc(Cl)cc(C#N)c1 | 136 to 140
COc1ccc(-c2ocnc2-c2cc(OC)c(O)c(OC)c2)cc1O | 144 to 146
CC(C)n1nc(-c2cnc(N)nc2-c2cccnc2)ccc1=O | 204
Cc1nc(CO)c(OCc2ccccc2)c(=O)n1C | 93 to 95
CC(=O)c1cc(N2CCOCC2)ccc1NC(=O)c1cccc(OCc2ccccc2)c1 | 140 to 142
COc1cccc(CN2CCN(CC(=O)N3CC=C(c4ccccc4)n4ncc(C#N)c43)CC2)c1 | 98 to 100
O=C(Nc1ccccc1Cl)c1ccccc1SSc1ccccc1C(=O)Nc1ccccc1Cl | 247 to 249
CCc1cnc2c(NC(=O)c3c(Cl)cccc3Cl)cccc2c1CCC(N)=O | 235 to 236
CCCC(C)(COS(N)(=O)=O)COS(N)(=O)=O | 92 to 94
NCC(=O)N[C@@H]1CN2C(=O)N(c3cc(Cl)nc(Cl)c3)C(=O)[C@@]2(Cc2ccc(OC(F)(F)F)cc2)C1 | 114

Structure (SMILES) | melting point [°C]
O=C(CCC(=O)N1CCC(c2ccc(Cl)cc2)CC1)c1ccc2c(c1)CCN(CC(=O)c1ccccc1)CC2 | 108 to 109
CC(C)=CCc1c(C)cc(O)cc1C | 64 to 65
O=C(N[C@@H](CO)C(=O)N1CC(C(=O)O)C1)OCc1ccccc1 | 138 to 143
C[C@@H](SCC(N)=O)[C@](O)(Cn1cncn1)c1ccc(F)cc1F | 144 to 145
CC(O)=C1C(=O)CC(c2ccccc2C)CC1=O (stereo unspecified) | 78 to 81
O=C(O)Cc1ccc2c(c1)C(=O)Cc1cccnc1S2 | 212 to 214
CC(=O)SCC(Cc1ccccc1)C(=O)Nc1cc(C(=O)O)cc(C(F)(F)F)c1 (stereo unspecified) | 62 to 67
NCCNC(=O)Nc1ccccc1C(=O)NCC1CCN(C(c2ccccc2)c2ccccc2)CC1 | 101 to 103
CCOC(=O)C(=O)CC(=O)c1cn(Cc2ccccc2F)c2cc(Cl)ccc2c1=O | 173 to 175
CCCCN1CCC(COC(=O)c2cc(Cl)c(N)cc2OC)C(O)C1 (stereo unspecified) | 121
CCCS(=O)(=O)c1cccnc1S(=O)(=O)NC(=O)Nc1nc(OC)cc(OC)n1 | 168 to 170
CCC12CCC(c3ccc(Cl)cc3)(OC1)OC2 | 78
Cc1cc(Br)cc(C)c1OCCO | 47 to 48
Cn1nc(-c2ccccc2)c(CC(=O)O)c1-c1ccccc1 | 170 to 172
CC(=S)NC[C@H]1CN(c2ccc3c(c2)CCCc2cn[nH]c2-3)C(=O)O1 | 190 to 195
Cc1ccc(-c2ccc3c(c2)C=C(C(=O)N2CCC(N)CC2)CCO3)cc1 | 123 to 127
O=C(Nc1ccccc1)Nc1ccc2ccc(Cl)nc2n1 | 276
COC(=O)C1(N(OC2CCCO2)C(=O)Cc2c(C)cc(C)cc2C)CCN(OC)CC1 (stereo unspecified) | 107 to 109
Cn1cc(C(=O)NCc2ccc(Cl)cc2)c(=O)c2cc(CN3CCOCC3)cc(C#CCC[C@@H]3COC(=O)N3)c21 | 171 to 173
CN(C(=O)N1CCN2C(=O)OC(c3ccccc3)(c3ccccc3)C2C1)c1ccccc1 (stereo unspecified) | 146 to 147
Cc1cc(C)c2cccc(OCc3c(Cl)ccc(S(=O)(=O)N4CCC[C@H]4C(=O)NCCCNC(=O)Cc4ccc(C=NN)cc4)c3Cl)c2n1 | 184 to 188
CCCCC(Cc1ccc(OCCNC(=O)c2ccc(-c3ccc(CN(C)C)cc3)cc2)cc1)C(=O)O (stereo unspecified) | 125 to 127
Cc1cc(-c2nc3cccnn3c2-c2ccnc(NC(=O)c3ccc4ncsc4c3)c2)ccc1F | 252 to 253
C=CCOc1cc(=O)n(-c2ccccc2)c2ncccc12 | 171 to 174

Structure (SMILES) | melting point [°C]
O=[N+]([O-])C(=Cc1ccoc1)C1=NCCN1Cc1ccc(Cl)nc1 | 175 to 176
COc1ccc(C(=O)N2CCC(N(C)c3ccccc3Cl)c3ccccc32)cc1OC (stereo unspecified) | 146 to 147
COC(=O)CCC(C)C(=O)N[C@@H](C)C(=O)OCc1ccccc1 (stereo partly specified) | 97 to 99
C#Cc1cnn2c(C(F)(F)F)cc(-c3ccc(C(F)(F)F)cc3)nc12 | 138
CCC(CC)Nc1n[nH]c(=O)c2c1ccn2-c1c(C)cc(C)cc1C | 183 to 185
CCOC(=O)C(=CNc1ncnc2ccc(N3CCN(C)CC3)cc12)C(=O)OCC | 154 to 159
FCc1cccc(C#CCCc2ccc3ccccc3n2)n1 | 70.2 to 74.3
CCCCCCCCCCCCC(O)CC#CCCCC(=O)O (stereo unspecified) | 80.5 to 81
COc1ccc(CN(C)CCc2ccc(NC(=O)c3cccc4c(=O)c5cccc(F)c5[nH]c34)cc2)cc1OC | 175
CC(C)n1nc(C(=O)Cl)c2ccccc21 | 63 to 64
Cc1ccc(C(=O)Nc2cc(N3CCOCC3)cc(C(F)(F)F)c2)cc1Nc1nccc(-c2cccnc2)n1 | 208 to 211
CCCCC1(c2ccc(-c3ccccc3)cc2)CC(O)=C(SCCc2ccccc2)C(=O)O1 (stereo unspecified) | 100 to 104
NC(=O)OCC(O)COc1noc2ccc(Cl)cc12 (stereo unspecified) | 123 to 124
O=C1NCCCCC1c1cccc(OCc2ccccc2)c1 (stereo unspecified) | 119 to 122
O=C1CC(c2cccc(-c3nc(CO)cs3)c2)=Nc2ccc(-n3cccc3)cc2N1 | 238 to 240
COc1cc(Cc2cnc(N)nc2N)cc(-c2ccc(N(C)C)cc2)c1OC | 230
CCCn1cc2c(C3C(=O)Nc4ccc(Br)cc43)nc(NCCCN3CCOCC3)nc2n1 (stereo unspecified) | 298 to 303
CC(CC(=O)O)NC(=O)c1ccccc1 (stereo unspecified) | 150 to 152
CC(C)[C@H](NC(=O)OCc1ccccc1)C(=O)NC(Cc1ccccc1)C(O)C(Cc1ccccc1)NC(=O)OC(C)(C)C (stereo partly specified) | 187 to 188
c1ccc2sc(-c3ccnc(Nc4ccc5c(c4)OCCO5)c3)cc2c1 | 154
O=C1NCC2=C1CN=C(c1ccccc1Cl)c1cc(Cl)ccc12 | 243 to 244
CCCc1cc(O)cc2cc(-c3ccc(O)cc3)oc12 | 178 to 180
CN1CCC(C2=C(C#N)C(c3ccccc3Cl)c3c[nH]nc3N2)CC1 (stereo unspecified) | > 270
Clc1cc2ccccc2c(N2CCSCC2)n1 | 133

Structure (SMILES) | melting point [°C]
CC(=O)Nc1ccc(C=Cc2cc(=O)cc(-c3ccccc3)o2)cc1 | 271 to 272
COc1ccc(Cl)c(Oc2c(COCC(O)CO)nc(N3CCOCC3)nc2NS(=O)(=O)c2ccc(C(C)C)cn2)c1 (racemic) | 116
CCNC(=O)Nc1cc(-c2c(-c3ccc(F)c(C)c3)nc3cc(C(C)(C)C)c(Cl)nn23)ccn1 | 246 to 247
Cn1c(CNCC(C)(C)O)cc2cc(NC(=O)c3ccc(OCC4CC4)cc3)ccc21 | 188 to 189
Nc1ccnc(SCCCCN2C(=O)c3ccccc3C2=O)n1 | 164 to 167
Clc1ccc([C@@]2(Cn3ccnc3)OC[C@H](COc3ccc4c(c3)CCN(CCCc3ccc(-c5ccccc5)cc3)C4)O2)c(Cl)c1 (racemic) | 125 to 127
CCOC(=O)CCC(=O)c1ccc(-c2ccccc2)cc1 | 100 to 101
CCc1cc2c(Cl)cc(F)c(-n3c(=O)cc(C(F)(F)F)n(C)c3=O)c2o1 | 142 to 143
CCCn1nc(C(C)C)c(C(=O)OCc2ccccc2C(=O)c2ccccc2)c1Cc1ccc(-c2ccccc2S(=O)(=O)NC(=O)OC(C)(C)C)c(F)c1 | 57 to 61
CN1C(=O)C(c2ccc(OC(F)F)cc2)(c2cccnc2)N=C1N (stereo unspecified) | 173 to 175
CCN(C(=O)c1ccc(CCSn2cnc3ccccc32)cc1)C1CCCCC1 | 114 to 115
CC(=O)NCCNc1cccc(-c2cc(-c3ccc(F)cc3O)nc(NC(=O)c3ccco3)c2C#N)c1 | 158 to 160
CCOC(=O)C(C=O)Cc1ccn(Cc2ccccc2)c(=O)c1 (stereo unspecified) | 140 to 143
Cc1cc(C)c2nc(NCCCN3CCCCC3)n(Cc3nc(C)ccc3O)c2c1 | > 260
CC(Oc1cnn(-c2ccc(Cl)cc2)c(=O)c1Cl)c1ccc(Cl)cc1 (stereo unspecified) | 135 to 138
CC1OC(n2cc(F)c(NC(=O)OC3CCCCC3)nc2=O)C(O)C1O (stereo unspecified) | 134 to 136
COc1ccc(C(O)CN2CCN(c3cccccc3=O)CC2)cc1OC (stereo unspecified) | 122 to 124
S=C(NCCC1=CCCCC1)Nc1nccs1 | 147 to 148
Cc1nc2c(cc1C(=O)O)CCCC2 | 196 to 197
Cc1c(C)c2c(c(C)c1NC(=O)CC(C)(C)C)C(c1ccc(C(C)C)cc1)CO2 (stereo unspecified) | 171 to 173
N#Cc1cnn2c(C(F)(F)F)cc(-c3ccccc3Cl)nc12 | 169
CC(=O)c1cc2c(s1)CCC1CC(=O)N(c3ccc(C)cc3)N=C21 (stereo unspecified) | 191 to 193
CCOC(=O)c1ccc(OC(=O)c2ccc(C(=O)Oc3ccc(C(=O)OCC)cc3)cc2)cc1 | 187 to 189
CCc1coc2c(-c3ccc(S(C)(=O)=O)cc3)c(-c3ccc(F)cc3)nn12 | 205 to 208

— a melting point compilation (Tetko et al.; mined from patent text by program, amines drawn as free bases though some values may be those of a salt)
